Assay results published in patent US12332244B2, “Composition for diagnosing diseases associated with COX2 overexpression and screening method therefor” (KYUNGPOOK NATIONAL UNIVERSITY INDUSTRY-ACADEMIC COOPERATION …, priority 2018, dated 2025).

How the values were obtained:
[1] = target: T1, COX2 protein in microglia (Mus musculus, UniProt Q05769); experiment: [14C] bound to COX2 immunoprecipitated from microglia after oral [14C]N-acetyl sphingosine; type: in vivo; conditions: 5-month-old APP/PS1 Alzheimer's animal model compared to control (WT); 10 μCi oral; after 1 hour; FIG. 6
T1 construct: from tissue; host or cells: microglia isolated from the cerebrum of wild-type and APP/PS1 mice (C57BL/6 background)
T1 sequence (Q05769 18-604): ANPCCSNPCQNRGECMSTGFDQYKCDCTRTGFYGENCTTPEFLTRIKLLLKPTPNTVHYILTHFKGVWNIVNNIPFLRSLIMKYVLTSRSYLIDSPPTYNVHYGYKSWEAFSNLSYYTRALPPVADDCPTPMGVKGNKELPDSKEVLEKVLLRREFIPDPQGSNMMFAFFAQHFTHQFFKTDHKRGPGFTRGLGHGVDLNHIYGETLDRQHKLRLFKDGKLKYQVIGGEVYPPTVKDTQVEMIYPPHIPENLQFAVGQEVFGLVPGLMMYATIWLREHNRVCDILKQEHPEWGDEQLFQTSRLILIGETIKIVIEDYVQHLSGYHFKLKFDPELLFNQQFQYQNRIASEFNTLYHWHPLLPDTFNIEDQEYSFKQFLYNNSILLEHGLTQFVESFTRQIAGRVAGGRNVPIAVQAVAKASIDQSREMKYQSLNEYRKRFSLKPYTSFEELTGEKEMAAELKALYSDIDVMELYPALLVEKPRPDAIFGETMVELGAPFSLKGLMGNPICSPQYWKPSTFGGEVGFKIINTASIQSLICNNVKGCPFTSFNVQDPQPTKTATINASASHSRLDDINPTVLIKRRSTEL
Excerpt: Mouse experiments have been approved by the Kyungpook National University Institutional Animal Care and Use Committee (IACUC). A transgenic mouse line overexpressing APPswe (hAPP695swe) or PS1 (presenilin-1M146V) based on C57BL/6 mice (Charles River, UK) was used [Hereinafter, “APP mouse”: refers to a mouse overexpressing APPswe, “PS1 mouse”: refers to a mouse overexpressing presenilin-1M146V; GlaxoSmithKline]
After oral administration of 10 μCi of [^14C]N-acetyl sphingosine (American Radiolabeled Chemicals, ARC1024) to 5-month-old wild-type and APP/PS1 mice, microglia were isolated from the cerebra of the mice after 1 hour.
(§1) The COX2 protein of isolated microglia and neuroblastoma SH-SY5Y were isolated by immunoprecipitation, and then liquid scintillation counting was performed on [^14C].
After 1 hour, the COX2 in microglia was isolated from the control and the Alzheimer's animal model by immunoprecipitation, and the amount of COX2 labeled with [^14C] was confirmed.

[2] = target: T2, COX2 protein in neuroblastoma SH-SY5Y (Homo sapiens, UniProt P35354); experiment: [14C] bound to COX2 immunoprecipitated from neuroblastoma SH-SY5Y cells treated with [14C]N-acetyl sphingosine; type: cell-based; conditions: neuroblastoma SH-SY5Y compared to control; 2 μCi; after 1 hour; FIG. 8
T2 construct: endogenous in cells; host or cells: SH-SY5Y neuroblastoma cells
T2 sequence (P35354 18-604): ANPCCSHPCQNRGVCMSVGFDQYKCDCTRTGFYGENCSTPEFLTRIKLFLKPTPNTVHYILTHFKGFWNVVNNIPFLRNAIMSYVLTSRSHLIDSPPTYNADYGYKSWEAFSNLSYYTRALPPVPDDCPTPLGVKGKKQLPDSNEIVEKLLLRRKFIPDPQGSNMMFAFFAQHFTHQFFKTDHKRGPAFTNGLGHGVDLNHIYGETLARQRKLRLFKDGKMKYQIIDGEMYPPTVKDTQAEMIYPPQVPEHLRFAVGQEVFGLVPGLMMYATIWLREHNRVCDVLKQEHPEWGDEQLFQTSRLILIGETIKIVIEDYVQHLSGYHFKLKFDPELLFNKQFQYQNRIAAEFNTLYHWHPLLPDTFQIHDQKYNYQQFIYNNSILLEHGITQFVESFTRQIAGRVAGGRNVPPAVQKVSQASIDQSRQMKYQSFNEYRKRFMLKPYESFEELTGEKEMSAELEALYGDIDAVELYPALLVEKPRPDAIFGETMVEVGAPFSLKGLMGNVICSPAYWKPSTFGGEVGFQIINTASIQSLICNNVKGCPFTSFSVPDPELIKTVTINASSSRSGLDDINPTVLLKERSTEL
Protocol: In addition, neuroblastoma SH-SY5Y was treated with 2 μCi of [^14C]N-acetyl sphingosine (American Radiolabeled Chemicals, ARC1024) for 1 hour, and then cells were collected.
as §1
In other words, [^14C]N-acetyl sphingosine ([^14C]N-AS), in which carbon of N-AS strongly binding to COX2 was substituted with an isotope, was treated to the cancer cells (2 μCi). After 1 hour, the COX2 was isolated from the control and the cancer cells, neuroblastoma SH-SY5Y by immunoprecipitation, and the amount of COX2 labeled with [^14C] was confirmed.

[3] = Brain distribution after oral or intravenous administration to normal mice; type: in vivo, mouse; conditions: for Kp: mouse, brain, FIG. 4C
Protocol: FIGS. 4A to 4C illustrate a result of showing a concentration remaining in the brain for each time period after oral (p.o. 10 mg/kg) or intravenous administration (i.v. 1 mg/kg) of N-acetyl sphingosine to normal mice (FIG. 4A), a result of showing a concentration remaining in the brain after 24 hours (FIG. 4B), and a pharmacokinetic test analysis result for a brain distribution (FIG. 4C) (n=3/group).
In order to apply the compounds of the present invention to the diagnosis of degenerative brain diseases, it is important to distribute the compounds well to the brain after administration. To confirm this, the N-AS was administered orally (10 mg/kg) or through tail vein (1 mg/kg), and then the brain was extracted by time to measure the concentration of N-AS, and after 24 hours, the brain was extracted to measure the concentration of the remaining N-AS.

wild type COX2 = target: T3, wild type COX2 (Homo sapiens, UniProt P35354); experiment: Filter binding assay / enzymatic analysis of COX2, wild type; conditions: [14C]N-acetyl sphingosine binding to wild-type COX2, saturation plot; FIG. 3
T3 sequence (P35354 18-604): T2 sequence (P35354 18-604)
Protocol: The binding activity of wild type COX2 or mutant COX2 (N181A, T564A, S565A, S567A) and N-acetyl sphingosine (N-AS) was analyzed by filter binding assay (Nat Commun. 2018 Apr. 16; 9(1):1479).
The binding rate (Vbinding) of [^14C]N-acetyl sphingosine (American Radiolabeled Chemicals, ARC1024) to wild-type COX2 and mutant COX2 (N181A, T564A, S565A, S567A) was expressed as the concentration of N-acetyl sphingosine. […] By using the calculated Kcat and KM, Kcat/KM (catalytic efficiency), which has been widely used as a measure of enzyme performance, was calculated from wild-type COX2 and mutant-type COX2 (N181A, T564A, S565A, S567A).

| Compound | amount of [14C]-labeled COX2 in microglia [1] | amount of [14C]-labeled COX2 in cancer cells [2] | Kp ([3]; intravenous, tail vein administration 1 mg/kg) | Kp ([3]; oral administration 10 mg/kg) | concentration of N-AS in the brain ([3]; oral 10 mg/kg or tail vein 1 mg/kg, by time and after 24 hours, FIGS. 4A and 4B) | Kcat (wild type COX2) |
| --- | --- | --- | --- | --- | --- | --- |
| CCCCCCCCCCCCC/C=C/[C@@H](O)[C@H](CO)N[14C](C)=O [[^14C]N-AS, [^14C]N-acetyl sphingosine] | increased | increased |  |  |  |  |
| CCCCCCCCCCCCC/C=C/[C@@H](O)[C@H](CO)NC(C)=O [N-AS, N-acetyl sphingosine] |  |  | 2.16 | 3.18 | high | 0.008 s⁻¹ |
